According to ChEMBL document CHEMBL3259744, “Synthesis and biological evaluation of cinnamido linked benzophenone hybrids as tubulin polymerization inhibitors and apoptosis inducing agents” (Bioorg Med Chem Lett, 2014):
Activity calls are given as the source filed them. The rule behind the calls is not given here.

Legend:
HeLa [1] = experiment: Induction of apoptosis in human HeLa cells assessed as presence of apoptotic bodies at 1 uM after 48 hrs by Hoechst 33342 staining-based fluorescence microscopic analysis; type: functional, cell-based
HeLa [2] = experiment: Induction of apoptosis in human HeLa cells assessed as nuclear fragmentation at 1 uM after 48 hrs by Hoechst 33342 staining-based fluorescence microscopic analysis; type: functional, cell-based
HeLa [3] = experiment: Cytotoxicity against human HeLa cells after 72 hrs by MTT assay; type: functional, cell-based
[4] = Cytotoxicity against human ME180 cells after 72 hrs by MTT assay; type: functional, cell-based; conditions: ME-180, 72 h
DU-145 = experiment: Cytotoxicity against human DU145 cells after 72 hrs by MTT assay; type: functional, cell-based; conditions: DU-145, 72 h
PC-3 = experiment: Cytotoxicity against human PC3 cells after 72 hrs by MTT assay; type: functional, cell-based; conditions: PC-3, 72 h
COLO 205 = experiment: Cytotoxicity against human COLO205 cells after 72 hrs by MTT assay; type: functional, cell-based; conditions: COLO 205, 72 h
HT-29 = experiment: Cytotoxicity against human HT-29 cells after 72 hrs by MTT assay; type: functional, cell-based; conditions: HT-29, 72 h
B16 = experiment: Cytotoxicity against mouse B16 cells after 72 hrs by MTT assay; type: functional, cell-based; conditions: B16, 72 h
HeLa [5] = experiment: Cell cycle arrest in human HeLa cells assessed as accumulation at sub-G1 phase at 0.5 uM after 24 hrs by propidium iodide staining-based FACS analysis (reference value: 3.07%); type: functional
HeLa [6] = experiment: Cell cycle arrest in human HeLa cells assessed as accumulation at G1 phase at 0.5 uM after 24 hrs by propidium iodide staining-based FACS analysis (reference value: 71.21%); type: functional
HeLa [7] = experiment: Cell cycle arrest in human HeLa cells assessed as accumulation at S phase at 0.5 uM after 24 hrs by propidium iodide staining-based FACS analysis (reference value: 4.62%); type: functional
HeLa [8] = experiment: Cell cycle arrest in human HeLa cells assessed as accumulation at G2/M phase at 0.5 uM after 24 hrs by propidium iodide staining-based FACS analysis (reference value: 21.10%); type: functional
HeLa [9] = experiment: Induction of apoptosis in human HeLa cells assessed as caspase-3 activation at 2 uM after 48 hrs by Ac-DEVD fluorescence assay relative to control; type: functional
Tubulin (Homo sapiens) [10] = target: T1, Tubulin (Homo sapiens) (UniProt P68371+Q9H4B7+P0DPH7+P68366+Q13509+Q71U36+P04350+Q3ZCM7+P07437+P68363+Q9BQE3+Q6PEY2+Q13885+Q9BVA1+Q9BUF5); experiment: Inhibition of tubulin polymerization in human HeLa cells assessed as disruption of microtubule organization at 1 uM after 48 hrs by immunohistochemical analysis; type: cell-based
Tubulin (Homo sapiens) [11] = target: T1, Tubulin (Homo sapiens); experiment: Inhibition of tubulin (unknown origin) polymerization at 5 uM measured for 1 hr by fluorescence assay in presence of GTP relative to control; type: protein-complex assay
Tubulin = experiment: Inhibition of tubulin (unknown origin) polymerization measured for 1 hr by fluorescence assay in presence of GTP; type: protein-complex assay, Homo sapiens
HeLa [12] = experiment: Induction of apoptosis in human HeLa cells assessed as DNA fragmentation at 1 to 2 uM after 48 hrs by agarose gel electrophoresis; type: functional, cell-based
HeLa [13] = experiment: Induction of apoptosis in human HeLa cells assessed as […] condensation at 1 uM after 48 hrs by Hoechst 33342 staining-based fluorescence microscopic analysis; type: functional, cell-based

| Structure (SMILES) | Activity (HeLa [1]) | Activity (HeLa [2]) | IC50 (HeLa [3]) [µM] | IC50 [4] [µM] | IC50 (DU-145) [µM] | IC50 (PC-3) [µM] | IC50 (COLO 205) [µM] | IC50 (HT-29) [µM] | IC50 (B16) [µM] | Activity (HeLa [5]) [%] | Activity (HeLa [6]) [%] | Activity (HeLa [7]) [%] | Activity (HeLa [8]) [%] | fold change (FC) (HeLa [9]) | inhibition (Tubulin (Homo sapiens) [10]) | inhibition (Tubulin (Homo sapiens) [11]) [%] | IC50 (Tubulin) [µM] | Activity (HeLa [12]) | Activity (HeLa [13]) |
| --- | --- | --- | --- | --- | --- | --- | --- | --- | --- | --- | --- | --- | --- | --- | --- | --- | --- | --- | --- |
| COc1ccc(C(=O)c2cc(OC)c(OC)c(OC)c2)cc1NC(=O)/C=C/c1ccc(C(F)(F)F)cc1 | Active | Active | 0.09 | 0.8 | 4.3 | 3.5 | 2.6 | 1.6 | 0.1 | 5.66 | 49.59 | 5.92 | 38.82 | 5 | Active | 59.4 | 0.7 | Active | Active |
| COc1cccc(/C=C/C(=O)Nc2cc(C(=O)c3cc(OC)c(OC)c(OC)c3)ccc2OC)c1 |  |  | 3.1 | 4.3 | 6.2 | 4.7 | 5.1 | 1.9 | 3.1 |  |  |  |  |  |  |  |  |  |  |
| COc1cc(C(=O)c2cc(OC)c(OC)c(OC)c2)cc(NC(=O)/C=C/c2cc(F)c(F)c(F)c2)c1OC |  |  | 5 | 7.1 | 7.9 | 7.4 | 4.3 | 3.3 | 5.2 |  |  |  |  |  |  |  |  |  |  |
| COc1ccc(/C=C/C(=O)Nc2cc(C(=O)c3cc(OC)c(OC)c(OC)c3)ccc2OC)cc1 |  |  | 10.7 | 11.8 | 12.8 | 11.1 | 10.9 | 5.01 | 8.7 |  |  |  |  |  |  |  |  |  |  |
| COc1ccc(/C=C/C(=O)Nc2cc(C(=O)c3cc(OC)c(OC)c(OC)c3)cc(OC)c2OC)cc1N |  |  | 15.8 | 13.9 | 12.7 | 11.1 | 10.1 | 7.7 | 12.7 |  |  |  |  |  |  |  |  |  |  |
| C#CCOc1cccc(/C=C/C(=O)Nc2cc(C(=O)c3cc(OC)c(OC)c(OC)c3)cc(OC)c2OC)c1 |  |  | 7.3 | 8.4 | 13.5 | 10.1 | 11.2 | 8.1 | 5.1 |  |  |  |  |  |  |  |  |  |  |
| COc1cc(/C=C/C(=O)Nc2cc(C(=O)c3cc(OC)c(OC)c(OC)c3)ccc2OC)ccc1F |  |  | 13.6 | 15.5 | 12.1 | 14.1 | 11.8 | 7.7 | 16.3 |  |  |  |  |  |  |  |  |  |  |
| COc1cc(C(=O)c2cc(OC)c(OC)c(OC)c2)cc(N)c1OC |  |  | 13.5 | 12.2 | 10 | 7.4 | 4.4 | 3.8 | 12.5 |  |  |  |  |  |  |  |  |  |  |
| C#CCOc1cccc(/C=C/C(=O)Nc2cc(C(=O)c3cc(OC)c(OC)c(OC)c3)ccc2OC)c1 |  |  | 14 | 15.3 | 15.8 | 13.1 | 13.4 | 7.4 | 12.2 |  |  |  |  |  |  |  |  |  |  |
| COc1cccc(/C=C/C(=O)Nc2cc(C(=O)c3cc(OC)c(OC)c(OC)c3)cc(OC)c2OC)c1 |  |  | 6.9 | 8.6 | 12.5 | 13.3 | 10.7 | 8.7 | 6.7 |  |  |  |  |  |  |  |  |  |  |
| COc1cc(C(=O)c2cc(OC)c(OC)c(OC)c2)cc(NC(=O)/C=C/c2ccc(F)cc2)c1OC |  |  | 0.9 | 1 | 6.7 | 4.1 | 3.1 | 1.8 | 0.9 |  |  |  |  |  |  |  |  |  |  |
| COc1ccc(C(=O)c2cc(OC)c(OC)c(OC)c2)cc1NC(=O)/C=C/c1ccc(OC)c(OC)c1 |  |  | 7.8 | 8.9 | 10.2 | 7.5 | 8.2 | 2.5 | 6.3 |  |  |  |  |  |  |  |  |  |  |
| COc1ccc(C(=O)c2cc(OC)c(OC)c(OC)c2)cc1NC(=O)/C=C/c1cc(OC)c(OC)c(OC)c1 |  |  | 1.5 | 2.1 | 6.3 | 3.9 | 5.2 | 3.1 | 1.2 |  |  |  |  |  |  |  |  |  |  |
| COc1cc(C(=O)c2cc(OC)c(OC)c(OC)c2)cc(NC(=O)/C=C/c2ccc(C(F)(F)F)cc2)c1OC |  |  | 3 | 3.6 | 5.1 | 4.2 | 2.5 | 1.9 | 3.3 |  |  |  |  |  |  |  |  |  |  |
| COc1cccc(/C=C/C(=O)Nc2cc(OC)c(OC)c(OC)c2)c1 |  |  | 12.3 | 17.3 | 3.2 | 2.1 | 4.2 | 2.4 | 8.5 |  |  |  |  |  |  |  |  |  |  |
| COc1ccc(C(=O)c2cc(OC)c(OC)c(OC)c2)cc1N | Active | Active | 0.06 | 0.08 | 2.1 | 1.1 | 0.2 | 0.05 | 0.03 | 4.56 | 53 | 5.07 | 37.36 | 5 | Active | 58.3 | 0.6 |  | Active |
| COc1ccc(C(=O)c2cc(OC)c(OC)c(OC)c2)cc1NC(=O)/C=C/c1ccc(F)c(F)c1 |  |  | 8.1 | 8.9 | 10.2 | 8.3 | 6.02 | 4.2 | 6.5 |  |  |  |  |  |  |  |  |  |  |
| COc1ccc(/C=C/C(=O)Nc2cc(C(=O)c3cc(OC)c(OC)c(OC)c3)cc(OC)c2OC)cc1OC |  |  | 2.7 | 6.7 | 7.8 | 5.4 | 5.7 | 2.3 | 1.3 |  |  |  |  |  |  |  |  |  |  |
| COc1cc(C(=O)c2cc(OC)c(OC)c(OC)c2)cc(NC(=O)/C=C/c2cc(OC)c(OC)c(OC)c2)c1OC |  |  | 2.5 | 3.9 | 6.6 | 4.8 | 5.3 | 3.1 | 2.5 |  |  |  |  |  |  |  |  |  |  |
| COc1ccc(C(=O)c2cc(OC)c(OC)c(OC)c2)cc1NC(=O)/C=C/c1ccc(F)cc1 | Active | Active | 0.06 | 0.3 | 3.9 | 3.2 | 3.4 | 1.8 | 0.4 | 2.96 | 53.02 | 7.4 | 36.62 | 5 | Active | 60.5 | 0.6 | Active | Active |
| COc1ccc(C(=O)c2cc(OC)c(OC)c(OC)c2)cc1NC(=O)/C=C/c1cccc(OC(F)(F)F)c1 |  |  | 7.9 | 9.2 | 10.2 | 7.7 | 7.9 | 5.2 | 6.3 |  |  |  |  |  |  |  |  |  |  |
| COc1ccc(/C=C/C(=O)Nc2cc(C(=O)c3cc(OC)c(OC)c(OC)c3)cc(OC)c2OC)cc1 |  |  | 11.2 | 12.5 | 10.4 | 6.3 | 4.8 | 3.8 | 9.4 |  |  |  |  |  |  |  |  |  |  |
| COc1ccc(C(=O)c2cc(OC)c(OC)c(OC)c2)cc1NC(=O)/C=C/c1ccc([N+](=O)[O-])cc1 |  |  | 8.5 | 9.3 | 15.6 | 10.4 | 11.4 | 5.1 | 6.4 |  |  |  |  |  |  |  |  |  |  |
| COc1ccc(C(=O)c2cc(OC)c(OC)c(OC)c2)cc1NC(=O)/C=C/c1ccc(N)cc1 |  |  | 14.7 | 16 | 13.5 | 15.9 | 10.3 | 5.6 | 7.9 |  |  |  |  |  |  |  |  |  |  |
